Laboratory results reported in patent publication US20240327364A1, “THERAPEUTIC TARGETING OF GPR68 TO INDUCE FERROPTOSIS” (University Of Maryland, Baltimore, priority 2023, published 2024).
Read-outs that look alike come from different tables or passages of the source.

Columns and labels:
[1] = tested on: human pulmonary artery endothelial cells (HPAECs); test: Cyclic stretch-triggered endothelial cell activation; assay type: cell-based; conditions: for Rho activation by 18% cyclic stretch: OGM2 at 5 μM, OGM1 at 3 μM, Rho-GTP pulldown
Description: FIG. 33A through FIG. 33D: Cyclic stretch-triggered endothelial cell (EC) activation is abolished by OGM2 and OGM1. FIG. 33A: In human pulmonary artery endothelial cells (HPAECs), pretreatment with OGMs (OGM2 at 5 μM and OGM1 at 3 μM) abolished Rho activation by 18% cyclic stretch (18% CS), as determined by Rho-GTP pulldown assay. ST, static condition. FIG. 33B: Treatment with OGM2 or OGM1 blocked CS-triggered activation of myosin phosphatase target (MYPT) and myosin light chain (MLC) in ECs, as determined by their phosphorylation MYPT and MLC. FIG. 33C: OGM2 or OGM1 blocked CS-induced TNF-α mRNA expression in ECs. n=3, ^#P<0.05 versus ST, *P<0.05 versus 18% CS. Error bars, standard deviation. FIG. 33D: OGM2 and OGM1 blocked CS-induced VCAM-1 expression in ECs. Here, OGM=OGM2.

MINK = biological target: T1, MINK (Homo sapiens, UniProt Q8N4C8); test: KinomeScan; assay type: binding; conditions: read-out: % Control
T1 construct: purchased DiscoveRx

GPR68/OGR1 = biological target: T2, GPR68/OGR1 (Homo sapiens, UniProt Q15743); test: CHEM1-OGR1 cells Fluo-8 calcium assay, acidified media pH 6.4; assay type: cell-based
T2 construct: host or cells: Chem-1 (CHEM1-OGR1) cells
Description: Briefly, the methods were: On the day before the assay 20,000 cells per well of CHEM1-OGR1 cells were plated in 10% DMEM containing 10% FBS and 1% Pen/Strep into a 96 well plate. After 24 hours media was removed and cells were stained with 80 μL Fluo-8 calcium indicator dye according to manufacturer's protocol. After staining cells were treated with 20 uL of 4× concentration of test compounds. Using kinetic imaging in the Lionheart HCS fluorescence intensity was continuously measure at 10 frames per second, for 5 seconds before 100 μL of acidified media was added to the well resulting in a pH of 6.4. A ratio of fluorescence intensities prior to addition and at peak were calculated and averaged. The resulting data were platted and using a 4 parameter logistic regression EC50 (the concentration causing 50% effective inhibition) for each test compound was determined.

D5 = biological target: T3, D5 (Homo sapiens, UniProt P21918); test: GPCR Profiler; assay type: cell-based
T3 construct: host or cells: Chem-1 cells expressing Gα15

GPR68 = GPR68 (Homo sapiens, UniProt Q15743); test: Chem1-OGR1 cells washout (reversibility); assay type: cell-based; design: host or cells: Chem-1 cells (Chem1-OGR1); conditions: for reversibility of GPR68 inhibition: washout
Description: Chem1-GPR68 reporter cells were treated with 20 uM OM8345 for 2 hours and then rinsed with HBSS. […] The GPR68 inhibitory activity of OGM analogs segregated with the ability of the molecule to induce the phenotype in zebrafish.
Additional experiments, whereby OGM2 was resynthesized and used (due to its submicromolar potency and GPR68 specificity) were performed. See FIG. 6A (HNMR of resynthesis of OGM2) and FIG. 6B (LCMS of resynthesis of OGM2). To test the possibility of OGM2 being an irreversible inhibitor, Chem1-OGR1 cells (Millipore™) were incubated with 10 μM OGM2 for 4 hours, and after removing the compound stimulated with pH 6.4 medium. […] Time till 50% max ˜52 minutes. The signal returned back towards baseline uninhibited levels in a rapid and time-dependent manner.

TRKB = biological target: T4, TRKB (Homo sapiens, UniProt Q16620); test: KinomeScan; assay type: binding; conditions: read-out: % Control
T4 construct: purchased DiscoveRx (Fremont, CA)

PRKD1 = biological target: T5, PRKD1 (Homo sapiens, UniProt Q15139); test: KinomeScan; assay type: binding; conditions: read-out: % Control
T5 construct: purchased DiscoveRx (Fremont, CA)

ERBB4 = biological target: T6, ERBB4 (Homo sapiens, UniProt Q15303); test: KinomeScan; assay type: binding; conditions: read-out: % Control
T6 construct: purchased DiscoveRx (Fremont, CA)

CX3CR1 = biological target: T7, CX3CR1 (Homo sapiens, UniProt P49238); test: GPCR Profiler; assay type: cell-based
T7 construct: host or cells: Chem-1 cells with Gα15

[2] = biological target: T8, RSK4(Kin Dom.1-N-terminal) (Homo sapiens, UniProt Q9UK32); test: KinomeScan; assay type: binding; conditions: read-out: % Control
T8 construct: RSK4(Kin Dom.1-N-terminal); purchased DiscoveRx (Fremont, CA)

MRGX1 = biological target: T9, MRGX1 (Homo sapiens, UniProt Q96LB2); test: GPCR Profiler; assay type: cell-based
T9 construct: host or cells: Chem-1 cells expressing Gα15

M1 = biological target: T10, M1 (Homo sapiens, UniProt P11229); test: GPCR Profiler; assay type: cell-based
T10 construct: host or cells: Chem-1 cells with promiscuous Gα15

U87 = test: Clonogenicity (crystal violet); assay type: cell-based, human; conditions: 12 days
Description: U87 cells were plated at 400 cells per well in a 6-well plate and on the next day were treated with increasing concentrations of OGM2 for 12 days. The doses were 0 uM (DMSO control) 0.1 μM 0.5 uM, 1 uM, 1.5 uM and 2 uM, as labelled. The plate was fixed with formalin and stained with crystal violet.

WM115 = test: Agarose drop assay; assay type: cell-based, human; conditions: OGM2 5 μM, 5 days
Description: WM115 cells were trypsinized and resuspended at 100,000 cells per mL in low melt agarose. A 10 μl drop of the cell mixture was added to 12-well plate. After solidifying Normal culture media was added with either DMSO 0.5% or OGM2 5 μM. The area around the agarose drop was visualized manually with light microscopy. The cells were incubated for 5 days and visualized. Cells outside of the agarose drop were visualized and quantitated.
FIG. 12A is a schematic of the agarose drop assay. WM115 cells were mixed into a low melt agarose solution and single 10 μL drops were seeded onto cell culture plates. After solidifying, media containing OGM2 (5 μM) or CTL (DMSO […]) was added and wells were observed 5 days later. Immediately after media addition no cells are on the plate outside of the agarose gel in CTL or OGM2. Five days after seeding cells are observed outside of the gel (Black arrows) in CTL but not in OGM2. […] Quantification on the number of cells that escaped from an average of 5 gel drop replicates. FIG. 12B through FIG. 12D show the cells after media addition. No cells are on the plate outside of the agarose gel in CTL or OGM2. Five days after seeding, cells are observed outside of the gel (arrows) in CTL but not in OGM2.

[3] = concentration causing 50% effective inhibition of calcium response to pH 6.4, read-out: EC50

T2 sequence (Q15743 whole entry): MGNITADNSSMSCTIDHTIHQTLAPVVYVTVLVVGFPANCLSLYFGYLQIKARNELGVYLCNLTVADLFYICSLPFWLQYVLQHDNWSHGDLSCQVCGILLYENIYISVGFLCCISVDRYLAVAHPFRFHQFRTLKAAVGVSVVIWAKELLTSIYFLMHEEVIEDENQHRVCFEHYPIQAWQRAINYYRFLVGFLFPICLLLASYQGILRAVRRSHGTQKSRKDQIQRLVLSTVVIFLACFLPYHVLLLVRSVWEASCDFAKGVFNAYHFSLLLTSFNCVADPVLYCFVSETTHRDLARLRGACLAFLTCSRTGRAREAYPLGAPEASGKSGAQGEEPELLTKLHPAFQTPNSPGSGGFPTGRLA
GPR68, sequence (Q15743 whole entry): as above
T9 sequence (Q96LB2 whole entry, species assumed): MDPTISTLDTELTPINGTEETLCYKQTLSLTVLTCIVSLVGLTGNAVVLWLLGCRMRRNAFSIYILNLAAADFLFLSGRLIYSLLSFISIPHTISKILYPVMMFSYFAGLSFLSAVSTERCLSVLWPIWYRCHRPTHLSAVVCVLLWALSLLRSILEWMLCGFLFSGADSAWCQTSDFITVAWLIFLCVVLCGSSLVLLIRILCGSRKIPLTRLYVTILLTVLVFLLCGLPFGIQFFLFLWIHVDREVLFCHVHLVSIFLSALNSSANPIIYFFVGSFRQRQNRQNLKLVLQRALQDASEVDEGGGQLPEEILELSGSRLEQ
T10 sequence (P11229 whole entry): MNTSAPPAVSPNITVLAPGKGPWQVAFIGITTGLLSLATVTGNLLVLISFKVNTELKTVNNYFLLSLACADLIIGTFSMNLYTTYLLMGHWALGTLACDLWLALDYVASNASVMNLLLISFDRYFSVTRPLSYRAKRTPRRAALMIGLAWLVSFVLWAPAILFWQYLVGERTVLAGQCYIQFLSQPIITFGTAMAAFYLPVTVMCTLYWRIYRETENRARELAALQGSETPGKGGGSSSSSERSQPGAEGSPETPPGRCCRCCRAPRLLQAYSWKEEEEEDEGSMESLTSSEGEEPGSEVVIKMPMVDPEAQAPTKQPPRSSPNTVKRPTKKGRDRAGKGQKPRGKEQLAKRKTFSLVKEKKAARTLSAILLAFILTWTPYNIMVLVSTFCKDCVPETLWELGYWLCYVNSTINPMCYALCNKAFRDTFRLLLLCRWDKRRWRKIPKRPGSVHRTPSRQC
T7 sequence (P49238 whole entry, species assumed): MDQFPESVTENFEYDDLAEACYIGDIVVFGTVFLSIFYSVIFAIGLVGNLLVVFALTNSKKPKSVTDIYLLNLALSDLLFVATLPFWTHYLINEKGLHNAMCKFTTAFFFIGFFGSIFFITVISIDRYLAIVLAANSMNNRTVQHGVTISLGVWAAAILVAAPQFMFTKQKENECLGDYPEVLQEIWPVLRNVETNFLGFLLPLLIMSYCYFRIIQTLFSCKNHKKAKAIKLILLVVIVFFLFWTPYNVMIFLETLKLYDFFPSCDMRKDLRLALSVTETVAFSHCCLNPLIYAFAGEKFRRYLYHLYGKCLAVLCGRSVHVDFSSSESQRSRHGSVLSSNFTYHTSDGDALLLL
T3 sequence (P21918 whole entry): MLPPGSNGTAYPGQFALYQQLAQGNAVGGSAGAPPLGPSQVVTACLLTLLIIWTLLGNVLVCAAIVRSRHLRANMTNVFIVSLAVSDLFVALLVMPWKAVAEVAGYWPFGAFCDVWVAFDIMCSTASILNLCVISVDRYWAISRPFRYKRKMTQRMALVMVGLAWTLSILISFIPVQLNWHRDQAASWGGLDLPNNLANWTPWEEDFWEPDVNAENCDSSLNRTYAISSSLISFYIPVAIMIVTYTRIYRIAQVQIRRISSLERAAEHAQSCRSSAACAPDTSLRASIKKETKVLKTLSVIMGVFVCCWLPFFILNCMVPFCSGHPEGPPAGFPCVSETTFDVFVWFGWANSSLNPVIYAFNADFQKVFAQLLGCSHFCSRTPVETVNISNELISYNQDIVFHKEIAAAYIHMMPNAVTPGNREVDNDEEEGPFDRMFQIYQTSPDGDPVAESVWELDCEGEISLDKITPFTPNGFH
T1 sequence (Q8N4C8 whole entry): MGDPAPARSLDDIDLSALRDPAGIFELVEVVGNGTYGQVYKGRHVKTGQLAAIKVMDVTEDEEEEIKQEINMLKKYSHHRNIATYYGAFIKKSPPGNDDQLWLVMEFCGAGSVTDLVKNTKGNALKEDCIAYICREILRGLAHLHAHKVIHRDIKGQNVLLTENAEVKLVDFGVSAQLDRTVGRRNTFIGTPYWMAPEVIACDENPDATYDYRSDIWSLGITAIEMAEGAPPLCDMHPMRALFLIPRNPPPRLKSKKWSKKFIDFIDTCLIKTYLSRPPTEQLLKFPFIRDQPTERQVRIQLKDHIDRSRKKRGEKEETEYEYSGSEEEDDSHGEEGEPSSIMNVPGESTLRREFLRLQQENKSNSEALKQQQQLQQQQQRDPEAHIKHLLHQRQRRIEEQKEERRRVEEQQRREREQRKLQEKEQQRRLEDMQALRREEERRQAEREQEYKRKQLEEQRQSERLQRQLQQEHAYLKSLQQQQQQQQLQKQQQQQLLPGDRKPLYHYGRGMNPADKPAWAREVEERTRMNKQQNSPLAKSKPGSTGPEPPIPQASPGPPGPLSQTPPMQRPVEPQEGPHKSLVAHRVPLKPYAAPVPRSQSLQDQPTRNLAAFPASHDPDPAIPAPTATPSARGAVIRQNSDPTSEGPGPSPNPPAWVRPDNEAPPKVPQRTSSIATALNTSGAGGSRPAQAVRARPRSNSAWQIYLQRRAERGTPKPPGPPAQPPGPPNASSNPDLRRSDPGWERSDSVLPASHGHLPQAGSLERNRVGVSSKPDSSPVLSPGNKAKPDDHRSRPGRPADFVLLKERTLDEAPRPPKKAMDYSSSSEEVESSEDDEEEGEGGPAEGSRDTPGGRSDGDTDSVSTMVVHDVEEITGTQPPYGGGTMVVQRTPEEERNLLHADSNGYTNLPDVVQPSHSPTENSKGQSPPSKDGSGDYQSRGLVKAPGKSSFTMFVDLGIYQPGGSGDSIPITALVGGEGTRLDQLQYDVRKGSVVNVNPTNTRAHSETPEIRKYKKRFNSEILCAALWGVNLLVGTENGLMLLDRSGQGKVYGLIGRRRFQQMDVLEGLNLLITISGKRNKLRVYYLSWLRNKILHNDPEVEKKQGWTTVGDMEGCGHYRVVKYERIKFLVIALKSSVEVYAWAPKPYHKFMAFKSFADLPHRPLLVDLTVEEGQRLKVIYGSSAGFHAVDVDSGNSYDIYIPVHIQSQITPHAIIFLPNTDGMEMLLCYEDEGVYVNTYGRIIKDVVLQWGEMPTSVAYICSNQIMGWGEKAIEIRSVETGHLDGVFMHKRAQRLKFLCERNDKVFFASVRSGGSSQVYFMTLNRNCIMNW
T8 sequence (Q9UK32 73-330 limits assumed): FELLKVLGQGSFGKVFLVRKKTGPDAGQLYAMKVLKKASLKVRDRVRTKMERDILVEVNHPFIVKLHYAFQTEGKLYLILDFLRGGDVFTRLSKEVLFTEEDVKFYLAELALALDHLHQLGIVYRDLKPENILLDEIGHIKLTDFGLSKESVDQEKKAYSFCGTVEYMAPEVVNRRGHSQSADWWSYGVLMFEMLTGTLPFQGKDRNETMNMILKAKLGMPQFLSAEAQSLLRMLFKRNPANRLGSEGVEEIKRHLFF
T5 sequence (Q15139 whole entry): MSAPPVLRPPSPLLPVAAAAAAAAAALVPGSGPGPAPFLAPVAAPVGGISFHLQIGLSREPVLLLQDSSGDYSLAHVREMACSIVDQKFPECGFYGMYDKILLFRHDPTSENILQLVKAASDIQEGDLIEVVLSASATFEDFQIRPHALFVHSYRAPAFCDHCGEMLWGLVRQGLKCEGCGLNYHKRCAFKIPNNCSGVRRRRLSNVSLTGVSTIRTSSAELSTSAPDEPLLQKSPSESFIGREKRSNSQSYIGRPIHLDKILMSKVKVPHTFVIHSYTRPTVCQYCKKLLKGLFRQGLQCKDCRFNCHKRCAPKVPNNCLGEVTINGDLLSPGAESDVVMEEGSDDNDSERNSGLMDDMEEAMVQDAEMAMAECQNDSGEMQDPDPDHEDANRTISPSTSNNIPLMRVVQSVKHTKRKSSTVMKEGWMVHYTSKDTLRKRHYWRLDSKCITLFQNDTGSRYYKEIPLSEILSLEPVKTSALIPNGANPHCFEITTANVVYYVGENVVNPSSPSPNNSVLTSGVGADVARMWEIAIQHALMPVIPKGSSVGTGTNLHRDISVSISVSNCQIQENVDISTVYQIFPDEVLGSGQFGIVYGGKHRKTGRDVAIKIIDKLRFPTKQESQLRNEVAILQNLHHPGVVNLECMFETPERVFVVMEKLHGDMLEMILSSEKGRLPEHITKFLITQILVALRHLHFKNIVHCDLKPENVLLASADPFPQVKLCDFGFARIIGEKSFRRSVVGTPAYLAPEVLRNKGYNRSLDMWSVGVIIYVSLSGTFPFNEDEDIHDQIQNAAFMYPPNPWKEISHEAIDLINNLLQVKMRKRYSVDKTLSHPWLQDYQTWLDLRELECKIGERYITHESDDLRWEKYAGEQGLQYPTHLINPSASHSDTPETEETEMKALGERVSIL

With CCc1ccc2c(c1)C1(NN=C(c3cccc4ccccc34)S1)C(=O)N2 (centres unmarked) [OGM1, 5-ethyl-5′-naphthalen-1-ylspiro[1H-indole-3,2′-3H-1,3,4-thiadiazole]-2-one] the “CS-induced TNF-α mRNA expression” value [1] was “blocked”, the “CS-induced VCAM-1 expression” value [1] was “blocked” and the “Rho activation by 18% cyclic stretch” value [1] was “abolished”. The remaining binding at 10 µM (MINK) was 97%, the EC50 (GPR68/OGR1; Table 5, read-out: GPR68) was 160 nM and the EC50 (GPR68/OGR1; [3]) was 306 nM. The Antagonism (D5; 10 uM) was −17.8, the Agonism (D5; 12.5 uM) was −1.8 and the “reversibility of GPR68 inhibition” value (GPR68) was “reversible inhibitor of GPR68”. The remaining binding at 10 µM (TRKB) was 51%, the remaining binding at 10 µM (PRKD1) was 100% and the remaining binding at 10 µM (ERBB4) was 100%. It also gave an Antagonism (CX3CR1; 10 uM) of −12.1, an Agonism (CX3CR1; 12.5 uM) of 0.3 and a remaining binding at 10 µM [2] of 100%. For the same molecule, the Antagonism (MRGX1; 10 uM) was 2.3, the Agonism (MRGX1; 12.5 uM) was −0.1 and the Antagonism (M1; 10 uM) was −3.3. The Agonism (M1; 12.5 uM) was 0.8.

With CCc1ccc2c(c1)C1(NN=C(c3ccccc3)S1)C(=O)N2 (centres unmarked) [OGM2] the “CS-induced TNF-α mRNA expression” value [1] was “blocked”, the “CS-induced VCAM-1 expression” value [1] was “blocked” and the “Rho activation by 18% cyclic stretch” value [1] was “abolished”. The EC50 (GPR68/OGR1; Table 5, read-out: GPR68) was 710 nM, the EC50 (GPR68/OGR1; [3]) was 710 nM and the “Time till 50% max” value (GPR68; recovery of GPR68 activity after washout, 10 μM OGM2 for 4 hours, pH 6.4 medium) was roughly 52 min. The “reversibility of GPR68 inhibition” value (GPR68) was “reversible and highly specific inhibitor of GPR68”, the “reversibility of GPR68 inhibition” value (GPR68; listed as OM8345) was “reversible inhibition of GPR68” and the clonogenicity (U87) was “reduces clonogenicity of U87 glioblastoma cells”. For the same molecule, the “migration out of agarose drop” value (WM115) was “migrated significantly less than the vehicle treated cells”.
